Columns and labels:
hCXCR4-NLuc = molecular target: T1, hCXCR4-NLuc (Homo sapiens, UniProt P61073); test: Bystander BRET detection of CXCR4 membrane localization; format: cell-based; conditions: 1 μM VUF16840
T1 construct: expressed in transfected cells; host or cells: HEK293T
Procedure: Ligand-induced receptor mobilization to the plasma membrane was monitored by bystander NanoBRET according to an established method.[36] For this assay, 5 × 10^6 HEK293T cells were seeded in 10-cm dishes and cotransfected with plasmids encoding ACKR3 C-terminally tagged with NLuc and mNeonGreen N-terminally tagged with the plasma membrane targeting sequence corresponding to the first 11 residues ([…]) of the human Lyn-kinase.[37] Twenty-four hours after transfection, cells were distributed into black 96-well plates (1 × 10^5 cells per well) and treated with chemokines (100 nM). After 45-minute incubation at 37 °C, coelenterazine H (10 μM) was added and donor emission (460 nm) and acceptor emission (535 nm) were immediately measured on a GloMax Discover (Promega) plate reader.
The resulting proximity between hACKR3-NLuc and was determined as bystander BRET. […] (B) The same assay was performed as in A for hCXCR4-NLuc. […] Expression of hACKR3-NLuc at the cell surface was determined by the measurement of bystander BRET. Depicted data represents the mean ± SD of 3 experiments with triplicate measurements per experiment.

D3-ACKR3+ cells = test: CXCL12 uptake in ACKR3-overexpressing hCMEC/D3 cells; format: cell-based, human
Excerpt: Human CMEC (D3) cells (CVCL_U985) stably overexpressing ACKR3 and empty vector control were generated by retroviral transductions. The lentiviral expression vector encoding the human ACKR3 was created by cloning the ACKR3 gene (NM_020311.3 from GenScript) in the restriction sites Nhe1/Sma1 of the pLV-LifeAct (a kind gift of Dr Niels Heemskerk). Lentiviral particles were packaged in HEK293T cells, cultured in Dulbecco’s modified Eagle’s medium containing 10% fetal calf serum, 1% penicillin/streptomycin (ThermoFisher Scientific) at 37 °C in a 5% CO2 incubator. Lentiviral expression and packaging vectors were introduced using calcium phosphate transfection. […] Supernatant was taken off, cells were washed 1× with medium and CXCL12-A647 signal in cells was measured using a BioTek Cytation microplate reader (Agilent). […]
The sigmoidal concentration-dependent displacement of binding of the probes [^3H]VUF15485 and CXCL12-A647 by unlabeled ligands were analyzed using GraphPad Prism 8, by fitting a one-site binding model to the data, to determine the pIC50. Mean pIC50 values were determined by averaging fitted values from individual experiments. […] Mean pEC50 values and pIC50 values were determined by averaging fitted values from individual experiments. […]

T1 sequence (P61073 whole entry): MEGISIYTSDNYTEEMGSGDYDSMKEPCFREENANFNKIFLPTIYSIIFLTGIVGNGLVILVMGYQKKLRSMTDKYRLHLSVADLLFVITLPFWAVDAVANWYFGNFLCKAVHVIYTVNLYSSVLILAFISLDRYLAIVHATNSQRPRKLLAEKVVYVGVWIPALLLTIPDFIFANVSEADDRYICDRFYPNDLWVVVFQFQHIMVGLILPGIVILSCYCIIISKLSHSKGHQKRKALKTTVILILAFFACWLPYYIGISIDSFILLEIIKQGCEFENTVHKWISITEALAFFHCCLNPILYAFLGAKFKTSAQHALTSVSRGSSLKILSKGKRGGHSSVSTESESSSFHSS

## COc1ccccc1CCNC(=O)C1CN(C2CCCCC2)CCC1NC(=O)c1cc(-c2ccc(F)cc2F)on1 (stereo not drawn) [VUF16840]
hCXCR4-NLuc
  effect on CXCR4 surface expression (bystander BRET): not affected
D3-ACKR3+ cells; 3 nM CXCL12-AF647 60 minutes, 1, 10 or 100 nM VUF16840
  CXCL12-AF647 uptake (mean fluorescent intensity): concentration-dependent inhibition
D3-ACKR3+ cells; 3 nM CXCL12-AF647, 100 nM VUF16840
  uptake of CXCL12-AF647 (confocal microscopy): abolished

Source: article PMC12799421, “Inhibition of constitutive activity of the atypical chemokine receptor 3 by the small-molecule inverse agonist VUF16840” (Molecular Pharmacology, 2025)
